{
  "source": "paper PMC6756013",
  "about": "“B591, a novel specific pan-PI3K inhibitor, preferentially targets cancer stem cells” (Oncogene, 2019)",
  "key": {"[1]": {"system": "MDA-MB-231 and SUM-159PT mammospheres", "experiment": "Secondary mammosphere-formation assay", "assay_type": "cell-based, human", "settings": "primary mammospheres treated 48 h, then passaged", "description": "Cells were treated with indicated agents for 48 h, and cells were harvested and processed for apoptosis assay using the PE-Annexin V/7-AAD Apoptosis Detection Kit. d Representative flow cytometry plots of apoptosis inducing activity of B591 (10 μM) and paclitaxel (10 nM) on monolayer and mammosphere MDA-MB-231 cells. e B591 preferentially targeted CD44^high/CD24^low cells. Cells were treated with B591 or paclitaxel for 2 days. Following a 4-day recovery period, cells were co-stained with CD44 and CD24 antibodies and subjected to FACS analysis. Representative flow cytometry plots show the effect of B591 on CD44^high/CD24^low population in MDA-MB-231 cells in vitro. f B591 decreased mammosphere forming efficiency. Primary MDA-MB-231 mammospheres were treated with B591 or paclitaxel for 48 h. Results of the secondary mammosphere-formation assay are shown. Scale bar represents 40 μm. g B591 decreased the expression of CSC markers in MDA-MB-231 cells. Cells were treated with B591 or paclitaxel for 2 days. […]\nIn the mammosphere assay, MDA-MB-231 (Fig. 3f) and SUM-159PT (Supplementary Fig. S10D) cells were treated with B591 or paclitaxel, and the mammospheres were collected and subsequently passaged. Secondary Mammosphere-forming activity was determined, which reflects the self-renewal capability of CSCs. […]"}, "[2]": {"system": "SUM-159PT, MCF7 and MDA-MB-231 mammospheres", "experiment": "Mammosphere formation assay", "assay_type": "cell-based, human", "settings": "treated 5 days", "description": "Fig. 4 B591 inhibits CSCs and tumorigenesis. a B591 inhibited mammosphere-formation of SUM-159PT, MCF7, and MDA-MB-231 cells. Mammospheres were cultured as described in Materials and methods section. […] The mammospheres were subsequently passaged for another two generations and each generation of the mammospheres were cultured for 5 days without B591 and then counted under a phase-contrast microscopy. The relative mammosphere-formation ability is shown as percentage, and data represent mean ± SD from three independent experiments. c, d Representative flow cytometry plots show the effect of B591 on CD44^high/CD24^low (c) and ALDH^high (d) breast CSCs population from SUM-159PT cells. e Quantification of flow cytometry analysis of CD44^high/CD24^low and ALDH^high breast CSCs population from SUM-159PT cells. […] The live cells were collected and counted, the same amount of control cells and B591-treated cells were then incubated into the fourth left and right mammary fat pad of mice, respectively, according the indicated number for each group. Tumors were inspected 3 months later, and the tumor initiating frequency (TIF) was calculated with ELDA software. […]\nIn mammosphere formation assay, mammospheres were cultured in the presence of B591 for 5 days as described above and then were counted and imaged under a phase-contrast microscopy (Nikon, Japan)."}},
  "data": [
    {"smiles": "Cc1cc2c(cc1C)[n+](Cc1ccccc1Br)cn2Cc1ccc2c(c1)CCO2.[Br-]", "note": "[B591, 3-(2-bromobenzyl)-1-((2,3-dihydrobenzofuran-5-yl)methyl) -5,6-dimethyl-1H-benzo[d]imidazol-3-ium bromide]", "values": [
      {"measurement": "Secondary mammosphere-forming ability", "setting": "[1]", "value": "strikingly suppressed"},
      {"measurement": "Size and number of primary mammospheres", "setting": "[2]", "value": "reduced by B591 in a concentration-dependent manner"}
    ]}
  ]
}
